Experimental data reported in US20250057959A1, “PHOSPHANE GOLD(I)-N-HETEROCYCLIC CARBENE COMPLEXES FOR TREATING CANCER” (KING FAHD UNIVERSITY OF PETROLEUM AND MINERALS, priority 2023, published 2025).

Key:
SKOV3 cells [1] = experiment: MTT cell viability assay, SKOV3; type: cell-based, human; details: 72 hours treatment
Excerpt: Human epithelial ovarian cancer A2780 cell line and its cisplatin-resistant clone A2780cis were obtained from Sigma-Aldrich (Milano, Italy). SKOV3 (HTB-77) cells were from the American Type Culture Collection (ATCC). The two cell lines were selected to reflect the two different stages of OvCa and different sensitivity to cisplatin. A2780 cell lines were derived from the ovarian tumor tissue of an untreated patient, while SKOV3 was from the ascitic fluids (after metastasis). Cells were authenticated in the laboratory using PowerPlex 16 HS system (Promega) and GeneMapper ID version 3.2.1 to identify DNA short tandem repeats. Cell lines were cultured in RPMI-1640 medium containing 10% fetal bovine serum (FBS) (Gibco, Thermo Fisher Scientific, U.S.A), 1% (v/v) of penicillin (10,000 units/mL)-streptomycin (10 mg/mL), and 1% (v/v) L-glutamine (200 mM) (all from Sigma- Aldrich) at 37° C. in a 5% CO2 fully humidified atmosphere. A2780cis cells were continuously exposed to 1 μM cisplatin to maintain cisplatin resistance. Adipose-derived stem cells (ADSCs) were purchased from Lonza and maintained in mesenchymal-stem-cell growth medium Bulletkit MSCGM (Lonza, Verviers, Belgium).
(§1) 4.0×10^3/mL A2780, A2780cis, and SKOV3 cells were seeded in 96-well microplates in 100 μL of culture medium. Cells were allowed to adhere for 24 hours and then were treated in triplicate with increasing concentrations of gold compounds (0-1 μM). Cisplatin was included as a reference drug. Cell viability was evaluated using 3-(4,5-dimethylthiazol-2-yl)-2,5-diphenyltetrazolium bromide (MTT) assay (Sigma-Aldrich) after 72 hours of treatment. Half maximal inhibitory concentrations (IC50) were calculated using the CalcuSyn software version 2 (Biosoft, Ferguson, MO, USA). Fold resistance was calculated as the ratio of the IC50 of the A2780cis to that of the parental cell line A2780.

[2] = test system: adipose-derived stem cells (ADSCs); experiment: Cell viability in normal adipose-derived stem cells; type: cell-based; details: 72 hours treatment, normal human cells
Excerpt: Human epithelial ovarian cancer A2780 cell line and its cisplatin-resistant clone A2780cis were obtained from Sigma-Aldrich (Milano, Italy). SKOV3 (HTB-77) cells were from the American Type Culture Collection (ATCC). The two cell lines were selected to reflect the two different stages of OvCa and different sensitivity to cisplatin. A2780 cell lines were derived from the ovarian tumor tissue of an untreated patient, while SKOV3 was from the ascitic fluids (after metastasis). Cells were authenticated in the laboratory using PowerPlex 16 HS system (Promega) and GeneMapper ID version 3.2.1 to identify DNA short tandem repeats. […]
as §1, with “Cells were allowed to adhere for 24 hours and then were treated in triplicate with increasing concentrations of gold compounds (0-1 μM). Cisplatin was included as a reference drug.” left out

A2780 and A2780cis cells = experiment: DNA double-strand breaks, γ-H2AX western blot; type: cell-based, human
Procedure: (§2) Whole-cell lysates were prepared using cold RIPA buffer [150 mM NaCl, 50 mM Tris-HCl (pH 8), 0.1% SDS, 1% Igepal, and 0.5% desoxycholate sodium] containing a protease inhibitor cocktail (Roche Diagnostics S.p.a., Milan, Italy), phosphatase inhibitors 1 mM Na3VO4 and 1 mM NaF (Sigma-Aldrich). Protein concentrations were determined using the BioRad protein assay (Bio-Rad Laboratories, Inc., CA, USA). Equal amounts of proteins were mixed with Laemmli buffer, separated in 4-20% SDS-PAGE (Criterion Precast Gel, BioRad), and blotted onto a nitrocellulose membrane (Amersham, GE Healthcare). Membrane strips were blocked with EveryBilot blocking buffer (Bio-Rad) and incubated at 4° C. overnight with primary antibodies probed with the appropriate antibodies (Table 2) and developed using Immobilon Western chemioluminescent HRP substrate. Images were acquired using a ChemiDoc XRS system (Bio-Rad).

[3] = test system: A2780, A2780cis, and SKOV3 cells; experiment: Cell cycle analysis (PI, flow cytometry), three OvCa lines; type: cell-based, human; details: 24 hours, 0.15 μM and 0.5 μM
Procedure: 2.0×10^5/mL A2780 and A2780cis cells were seeded in 6-well plates in complete medium and treated with complex 6 (0.15 μM and 0.5 μM). Results were detected by flow cytometry on a BD FACSCanto II flow cytometer. Data were analyzed using BD FACSDiva version 8.0.1 software (BD Biosciences) unless otherwise indicated. To evaluate apoptosis, tumor cells were treated for 48 hours and then stained for 15 minutes with FITC annexin-V (Thermo Fisher Scientific) and 7AAD (BD Pharmingen). […] For B-cell lymphoma/leukemia-2 (Bcl-2) and Bcl-2 associated x protein (Bax) evaluation, cells were fixed and permeabilized using FIX & PERM cell fixation and cell permeabilization kit (Life Technologies). For ROS generation, cells were stained with 5 μM MitoSOX red mitochondrial superoxide indicator (ThermoFisher Scientific) in a working solution for 30 minutes at 37° C. Cell cycle analysis was performed after 24 hours treatment with complex 6. Cells were harvested, fixed in cold 70% ethanol for 15 minutes, and stained with propidium iodide (PI) solution ([…] PI, 0.1% NP-40, 100 µg/mL PureLink RNase A, 0.1% sodium citrate) for 1 hour. The distribution of cells in different cell cycle phases was quantified using ModFit LT 4.0 software (Verity Software House, Topsham, ME, USA).

OvCa cells = experiment: Western blot of cell cycle regulatory proteins; type: cell-based, human; details: 24 hours
Procedure: as §2

[4] = test system: thioredoxin reductase (TrxR); details: OvCa cells treated 24 hours
Procedure: To evaluate both the thioredoxin reductase (TrxR) and proteasome activity, cells were treated with complex 6 for 24 hours and then lysed in 50 mM Tris-HCl, pH 7.6, 0.1% Triton X-100, 0.9% NaCl. TrxR (EC 1.8.1.9) was assayed using thioredoxin reductase assay kit (Sigma-Aldrich). Enzyme activity was determined by reading the absorbance at 412 nm using a spectrophotometer (Biomate 3 Thermo Spectronic, Thermo Electonic Corporation, Monza, Italy).
The enzymatic activity was normalized to the protein concentration and determined using the Bio-Rad protein assay (protein assay dye reagent concentrate, Bio-Rad Laboratories, Segrate, Italy).

SKOV3 cells [5] = experiment: Cytoskeleton organization, immunofluorescence confocal microscopy; type: cell-based, human; details: 24 hours treatment
Procedure: Cell migration was assessed using the in vitro wound healing assay. Briefly, cells were grown to confluence and then treated with complex 6. After 24 hours of treatment, the medium was removed and cells were washed then scraped with a pipet tip to create a “wound” in the monolayer and washed again. Fresh medium containing 2% FCS was added. Wounds were photographed at times 0, 24, and 48 hours using an inverted microscope (EclipseTS/100, Nikon, Instruments Europe BV Amsterdam, The Netherlands) at magnification 4. Migration was assessed by measuring the cell-free area (in pixels) with ImageJ-NIH (National Institutes of Health) tool software. The cytoskeleton organization was evaluated by culturing SKOV3 cells onto glass coverslips and performing immunofluorescence staining for α-tubulin and F-actin. SKOV3 cells were treated for 24 hours with complex 6, fixed in 4% paraformaldehyde, permeabilized with 0.5% Triton X-100, and incubated overnight with primary antibody (Table 1) at 4° C. Primary antibody was detected using the appropriate secondary antibody together with phallotoxins (Molecular Probes) and TO-PRO-3 (Thermo Fisher Scientific). Images were acquired using an SP8 confocal microscope (Leica).

CC(C)c1cccc(C(C)C)c1-n1ccn(-c2c(C(C)C)cccc2C(C)C)[c]1=[Au+][PH](C1CCCCC1)(C1CCCCC1)C1CCCCC1.F[P-](F)(F)(F)(F)F [Complex 6, [Au(IPr)(C18H33P)] PF6]
IC50 (SKOV3 cells [1]): 0.58 µM
IC50 [2]: 2.5 µM
DNA double-strand breaks (γH2AX) (A2780 and A2780cis cells): induced DNA-DSBs
Effect on cell cycle phases [3]: induced an accumulation in the G0/G1 phase of the cell cycle and a decrease in the S phases
Expression of G1/S phase proteins (CDKs, cyclins, E2F1, pRB) (OvCa cells): down-regulated the expression of CDk2, CDk4, CDk6, CycE, CycD1, CycD3
Expression of cyclin D regulators (OvCa cells): increased the expression of Foxo3A and pGSK-30 and decreased that of Cdc25a, PI3KI, pERK1/2, and bRAF
TrxR enzymatic activity [4]: did not modify its enzymatic activity
F-actin cytoskeleton organization (SKOV3 cells [5]): irregular disposition and organization of the F-actin cytoskeleton
α-tubulin distribution (SKOV3 cells [5]): did not modify α-tubulin distribution
